Data as given in PubChem BioAssay (NCI).
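Following 48 hours of exposure in 96-well plates, responses at five concentrations were used to interpolate endpoints linearly. GI50: concentration for 50% inhibition of growth. At the TGI there is no net growth.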

What was measured:
Assay in all cases: NCI tumour cell line growth inhibition, 48 h
786-0 renal = test system: 786-0 renal
T-47D breast = test system: T-47D breast
MCF7 breast = test system: MCF7 breast
SNB-75 CNS = test system: SNB-75 CNS
NCI-H460 lung = test system: NCI-H460 lung
U251 CNS = test system: U251 CNS
A549 NSCLC = test system: A549 NSCLC

COc1ccc(C2CC(n3nnnc3-c3ccccc3)=NN2)cc1 (centres undefined)
GI50 (786-0 renal): 4.61 µM | TGI (786-0 renal): 37.3 µM | GI50 (T-47D breast): 1.16 µM | TGI (T-47D breast): 87.3 µM | GI50 (MCF7 breast): 2.68 µM | TGI (MCF7 breast): 38.7 µM | GI50 (SNB-75 CNS): 14.4 µM | TGI (SNB-75 CNS): 54 µM | GI50 (NCI-H460 lung): 2.84 µM | TGI (NCI-H460 lung): 13.7 µM | GI50 (U251 CNS): 9.88 µM | TGI (U251 CNS): 35.9 µM

COc1ccc(CN2c3ccccc3CCc3ccccc32)cc1F
GI50 (786-0 renal): 0.572 µM | TGI (786-0 renal): > 100 µM | GI50 (T-47D breast): 0.394 µM | TGI (T-47D breast): > 100 µM | GI50 (MCF7 breast): 0.352 µM | TGI (MCF7 breast): > 100 µM | GI50 (A549 NSCLC): 0.732 µM | TGI (A549 NSCLC): > 100 µM | GI50 (SNB-75 CNS): 0.277 µM | TGI (SNB-75 CNS): > 100 µM | GI50 (NCI-H460 lung): 0.419 µM | TGI (NCI-H460 lung): > 100 µM | GI50 (U251 CNS): 0.496 µM | TGI (U251 CNS): > 100 µM

COc1cc2nc(-c3ccc(C(F)(F)F)cc3)cc(OCCCN3CCCCC3)c2cc1OC
GI50 (786-0 renal): 2.17 µM | TGI (786-0 renal): 6.59 µM | GI50 (T-47D breast): 0.454 µM | TGI (T-47D breast): 22.4 µM | GI50 (MCF7 breast): 1.16 µM | TGI (MCF7 breast): 4.39 µM | GI50 (A549 NSCLC): 0.722 µM | TGI (A549 NSCLC): 19.4 µM | GI50 (SNB-75 CNS): 1.96 µM | TGI (SNB-75 CNS): 6.86 µM | GI50 (NCI-H460 lung): 0.595 µM | TGI (NCI-H460 lung): 11.9 µM | GI50 (U251 CNS): 1.1 µM | TGI (U251 CNS): 14.8 µM

CCC(c1cccc(O)c1)C(CC)c1cccc(O)c1 (centres undefined)
GI50 (786-0 renal): 5.68 µM | TGI (786-0 renal): 18.3 µM | GI50 (T-47D breast): 3.54 µM | TGI (T-47D breast): 17.1 µM | GI50 (MCF7 breast): 1.62 µM | TGI (MCF7 breast): 8.04 µM | GI50 (A549 NSCLC): 8.58 µM | TGI (A549 NSCLC): 24.2 µM | GI50 (SNB-75 CNS): 0.973 µM | TGI (SNB-75 CNS): 11.7 µM | GI50 (NCI-H460 lung): 2.98 µM | TGI (NCI-H460 lung): 12.8 µM | GI50 (U251 CNS): 3.63 µM | TGI (U251 CNS): 14.7 µM

Cc1cc(-c2nnc3n2CCCCC3)c(C)n1-c1ccc(Cl)c(Cl)c1
GI50 (786-0 renal): 22.9 µM | TGI (786-0 renal): 56.7 µM | GI50 (T-47D breast): 6.03 µM | TGI (T-47D breast): 30.8 µM | GI50 (MCF7 breast): 4.89 µM | TGI (MCF7 breast): 20.2 µM | GI50 (A549 NSCLC): 16.8 µM | TGI (A549 NSCLC): 65.8 µM | GI50 (SNB-75 CNS): 13.4 µM | TGI (SNB-75 CNS): 27.7 µM | GI50 (NCI-H460 lung): 17.4 µM | TGI (NCI-H460 lung): 45.7 µM | GI50 (U251 CNS): 14.5 µM | TGI (U251 CNS): 31.2 µM

OCC1OC(n2cnc3c(/C=C(/O)c4ccccc4)ncnc32)C(O)C1O (centres undefined)
TGI (786-0 renal): > 100 µM | TGI (T-47D breast): > 100 µM | TGI (MCF7 breast): > 100 µM | TGI (A549 NSCLC): > 100 µM | TGI (SNB-75 CNS): > 25.1 µM | TGI (NCI-H460 lung): 7.56 µM | TGI (U251 CNS): > 100 µM

COC(=O)CCCCCN=Cc1c(O)c(O)c(C(C)C)c2cc(C)c(-c3c(C)cc4c(C(C)C)c(O)c(O)c(C=NCCCCCC(=O)OC)c4c3O)c(O)c12
GI50 (786-0 renal): 1.77 µM | TGI (786-0 renal): 14.7 µM | GI50 (T-47D breast): 1.25 µM | TGI (T-47D breast): 29.4 µM | GI50 (MCF7 breast): 1.04 µM | TGI (MCF7 breast): 5.83 µM | GI50 (A549 NSCLC): 1.35 µM | TGI (A549 NSCLC): > 32.5 µM | GI50 (SNB-75 CNS): 2.55 µM | TGI (SNB-75 CNS): > 32.5 µM | GI50 (NCI-H460 lung): 1.28 µM | TGI (NCI-H460 lung): 8.42 µM | GI50 (U251 CNS): 1 µM | TGI (U251 CNS): 5.6 µM

O=C1NC2(CN3CCC2CC3)C(=O)N1CN(Cc1ccccc1)c1ccccc1 (centres undefined)
TGI (786-0 renal): > 100 µM | TGI (T-47D breast): > 100 µM | TGI (MCF7 breast): > 100 µM | TGI (A549 NSCLC): > 100 µM | TGI (SNB-75 CNS): > 100 µM | TGI (NCI-H460 lung): > 100 µM | TGI (U251 CNS): > 100 µM

FCc1ncc(-c2ccc(C(F)(F)F)cc2)c(NC2CCCCCC2)n1
GI50 (786-0 renal): > 10 µM | TGI (786-0 renal): > 10 µM | GI50 (T-47D breast): > 10 µM | TGI (T-47D breast): > 10 µM | GI50 (MCF7 breast): > 10 µM | TGI (MCF7 breast): > 10 µM | GI50 (A549 NSCLC): > 10 µM | TGI (A549 NSCLC): > 10 µM | GI50 (SNB-75 CNS): > 10 µM | TGI (SNB-75 CNS): > 10 µM | GI50 (NCI-H460 lung): > 10 µM | TGI (NCI-H460 lung): > 10 µM | GI50 (U251 CNS): > 10 µM | TGI (U251 CNS): > 10 µM

COC(=O)CCC1=C(C)/C(=C/c2[nH]c(-c3ccc[nH]3)cc2OC)N=C1C
GI50 (786-0 renal): 0.653 µM | TGI (786-0 renal): 3.72 µM | GI50 (T-47D breast): 0.378 µM | TGI (T-47D breast): 1.86 µM | GI50 (MCF7 breast): 0.331 µM | TGI (MCF7 breast): 1.43 µM | GI50 (A549 NSCLC): 0.565 µM | TGI (A549 NSCLC): 6.32 µM | GI50 (SNB-75 CNS): 0.382 µM | TGI (SNB-75 CNS): 3.18 µM | GI50 (NCI-H460 lung): 0.441 µM | TGI (NCI-H460 lung): 4.88 µM | GI50 (U251 CNS): 0.343 µM | TGI (U251 CNS): 2.43 µM

CCN(CCNc1ccc(C)c2sc3ccccc3c(=O)c12)CC(C)(C)O
GI50 (786-0 renal): 8.31 µM | TGI (786-0 renal): 23 µM | GI50 (T-47D breast): 13.4 µM | TGI (T-47D breast): 47.3 µM | GI50 (MCF7 breast): 11.1 µM | TGI (MCF7 breast): 26.8 µM | GI50 (A549 NSCLC): 6.84 µM | TGI (A549 NSCLC): 25.5 µM | GI50 (SNB-75 CNS): 15.7 µM | TGI (SNB-75 CNS): 48.6 µM | GI50 (NCI-H460 lung): 3.24 µM | TGI (NCI-H460 lung): 11.2 µM | GI50 (U251 CNS): 5.67 µM | TGI (U251 CNS): 19.4 µM

c1nnc(NCNc2nncs2)s1
TGI (786-0 renal): > 100 µM | TGI (T-47D breast): > 100 µM | TGI (MCF7 breast): > 100 µM | TGI (A549 NSCLC): > 100 µM | TGI (SNB-75 CNS): > 100 µM | TGI (NCI-H460 lung): 83.6 µM | TGI (U251 CNS): > 100 µM

O=C1c2ccccc2-n2c1nc1ccccc1c2=O
TGI (786-0 renal): > 100 µM | TGI (T-47D breast): 87.4 µM | TGI (MCF7 breast): 25.2 µM | TGI (A549 NSCLC): 17 µM | TGI (SNB-75 CNS): 83.8 µM | TGI (NCI-H460 lung): 12 µM | TGI (U251 CNS): 37.5 µM

C/C(=N\NC(N)=S)c1nc2ccc(Cl)cc2[nH]1
GI50 (786-0 renal): 1.59 µM | TGI (786-0 renal): 7.96 µM | GI50 (T-47D breast): 4.48 µM | TGI (T-47D breast): > 50 µM | GI50 (MCF7 breast): 1.64 µM | TGI (MCF7 breast): > 50 µM | GI50 (A549 NSCLC): 2.3 µM | TGI (A549 NSCLC): 9.95 µM | GI50 (SNB-75 CNS): 2.29 µM | TGI (SNB-75 CNS): 15.6 µM | GI50 (NCI-H460 lung): 1.33 µM | TGI (NCI-H460 lung): 5.83 µM | GI50 (U251 CNS): 2.6 µM | TGI (U251 CNS): 13 µM

Cc1ccc(S(=O)(=O)N=Nc2c(O)[nH]c3c(Cl)cc(Cl)cc23)cc1
TGI (786-0 renal): > 100 µM | TGI (MCF7 breast): > 100 µM | TGI (A549 NSCLC): > 100 µM | TGI (NCI-H460 lung): > 100 µM | TGI (U251 CNS): > 100 µM

CCN(CC)CCCC(C)Nc1c2ccc(C)cc2nc2ccc(OC)cc12 (centres undefined)
GI50 (786-0 renal): 2.05 µM | TGI (786-0 renal): 8.58 µM | GI50 (T-47D breast): 11.8 µM | TGI (T-47D breast): 33.9 µM | GI50 (MCF7 breast): 0.837 µM | TGI (MCF7 breast): 11.1 µM | GI50 (A549 NSCLC): 0.6 µM | TGI (A549 NSCLC): 3.25 µM | GI50 (SNB-75 CNS): 1.37 µM | TGI (SNB-75 CNS): 3.24 µM | GI50 (NCI-H460 lung): 1.2 µM | TGI (NCI-H460 lung): 3.74 µM | GI50 (U251 CNS): 1.35 µM | TGI (U251 CNS): 4.45 µM

c1cc(CNC2C3CCC(C3)C2c2c[nH]c3ccccc23)cc(CNC2C3CCC(C3)C2c2c[nH]c3ccccc23)c1 (centres undefined)
GI50 (786-0 renal): 14.2 µM | TGI (786-0 renal): 27.3 µM | TGI (A549 NSCLC): > 100 µM | TGI (SNB-75 CNS): 1.21 µM | GI50 (NCI-H460 lung): 0.313 µM | TGI (NCI-H460 lung): > 100 µM | TGI (U251 CNS): 1.32 µM

O=C1CCCN1CC#CCN1CCCC1
GI50 (786-0 renal): > 100 µM | TGI (786-0 renal): > 100 µM | GI50 (T-47D breast): > 100 µM | TGI (T-47D breast): > 100 µM | GI50 (MCF7 breast): > 100 µM | TGI (MCF7 breast): > 100 µM | GI50 (A549 NSCLC): > 100 µM | TGI (A549 NSCLC): > 100 µM | GI50 (SNB-75 CNS): > 100 µM | TGI (SNB-75 CNS): > 100 µM | GI50 (NCI-H460 lung): > 100 µM | TGI (NCI-H460 lung): > 100 µM | GI50 (U251 CNS): > 100 µM | TGI (U251 CNS): > 100 µM

CNC(=S)N/N=C/c1ccc([N+](=O)[O-])s1
TGI (786-0 renal): > 10 µM | TGI (T-47D breast): > 10 µM | TGI (A549 NSCLC): > 10 µM | TGI (SNB-75 CNS): > 10 µM | TGI (NCI-H460 lung): > 10 µM | TGI (U251 CNS): > 10 µM

COc1ccc(-c2cn[nH]c2-c2cc(OC)c3c(c2)OCCO3)cc1
GI50 (786-0 renal): 0.369 µM | TGI (786-0 renal): 26.8 µM | GI50 (MCF7 breast): 0.061 µM | TGI (MCF7 breast): 32.6 µM | GI50 (A549 NSCLC): 0.102 µM | TGI (A549 NSCLC): 46 µM | GI50 (SNB-75 CNS): 0.122 µM | TGI (SNB-75 CNS): 0.738 µM | GI50 (NCI-H460 lung): 0.0686 µM | TGI (NCI-H460 lung): 11.4 µM | GI50 (U251 CNS): 0.159 µM | TGI (U251 CNS): 12.2 µM
